{
  "source": "patent US20080280817A1",
  "about": "“MODIFIED AMINO ACID FOR THE INHIBITION OF PLATELET AGGREGATION” (NOVARTIS AG, priority 2002, published 2008)",
  "type_in_all_cases": "cell-based, human",
  "key": {"[1]": {"tested_on": "platelet rich plasma (PRP)", "test": "ADP-induced platelet aggregation in PRP (aggregometer, optical density)", "protocol": "(§1) Freshly drawn venous blood from healthy volunteers is collected into 0.1 vol. […] trisodium citrate. The donors have not taken any medication during two weeks prior to blood collection. PRP is prepared by centrifugation of the freshly drawn blood (150 g, 15 minutes at 22° C.) and the final platelet concentration is standardized at 200 000 cell/μL by dilution in autologous platelet-free plasma, prepared by centrifugation (1200 g, 10 minutes at 22° C.). The supernatant is collected. Samples of PRP are pre-incubated for 1 minute (22° C.) with varying concentrations of 5-CNAC in saline (stored at −20° C.).\n(§2) In order to assess the inhibitory effect of 5-CNAC on platelet aggregation, the following studies are performed. Samples of 0.400 mL PRP containing 5-CNAC are prepared as above. To these samples is added 0.005 mL of an aggregation stimulator which is either ADP (Roche Molecular Biochemicals, Mannheim) or collagen (Horm Chemie, Munich). The final concentrations of either the ADP or collagen are as indicated in the “Results” section. Aggregation studies are performed in a Chronolog 4 channel aggregometer (type CH570VS-CH810). The aggregometer automatically calibrates the donor-dependent difference in optical density between platelet-free plasma (0% optical density) and the PRP (100% optical density) of a particular donor. The extent of aggregation is measured by expressing the maximal difference in optical density (independent of the time after the addition of the aggregation stimulator, i.e., either ADP or collagen) and normalized taking the control curves (without 5-CNAC) as an internal standard set at 100%."}, "[2]": {"tested_on": "platelet rich plasma (PRP)", "test": "Collagen-stimulated platelet aggregation in PRP (aggregometer, optical density)", "protocol": "as §1, §2"}, "[3]": {"tested_on": "platelet rich plasma (PRP)", "test": "Addition of 5-CNAC alone to PRP; platelet morphology", "protocol": "as §1\nIn order to assess the inhibitory effect of 5-CNAC on platelet aggregation, the following studies are performed. Samples of 0.400 mL PRP containing 5-CNAC are prepared as above. To these samples is added 0.005 mL of an aggregation stimulator which is either ADP (Roche Molecular Biochemicals, Mannheim) or collagen (Horm Chemie, Munich). The final concentrations of either the ADP or collagen are as indicated in the “Results” section. […] The extent of aggregation is measured by expressing the maximal difference in optical density (independent of the time after the addition of the aggregation stimulator, i.e., either ADP or collagen) and normalized taking the control curves (without 5-CNAC) as an internal standard set at 100%."}},
  "data": [
    {"smiles": "O=C(O)CCCCCCCNC(=O)c1cc(Cl)ccc1O", "note": "[5-CNAC, N-(5-chlorosalicyloyl)-8-aminocaprylic acid]", "values": [
      {"measurement": "inhibition of platelet aggregation at suboptimal ADP stimulation", "setting": "[1]; 3 μM and 2 μM ADP compared with 5 μM ADP", "result": "platelet aggregation is inhibited by lower concentrations of 5-CNAC"},
      {"measurement": "concentration at which inhibition of platelet aggregation becomes apparent", "setting": "[1]; 5 μM ADP (maximal stimulation), PRP from 12 healthy subjects", "result": "≥ 2", "unit": "µM"},
      {"measurement": "phase of the aggregation curve in which inhibition is seen", "setting": "[1]; all concentrations of ADP tested", "result": "evident in the second phase of the aggregation curve, but is not observed in the initial phase"},
      {"measurement": "change in cell shape upon ADP addition (increase in optical density)", "setting": "[1]; in the presence of 5-CNAC", "result": "undisturbed"},
      {"measurement": "inhibition of secondary aggregation", "setting": "[1]; later part of the aggregation curve", "result": "dose-dependently inhibits the later part of the aggregation curve"},
      {"measurement": "concentration at which inhibition is evident", "setting": "[2]; 1 μg/mL collagen", "result": "≥ 50", "unit": "µM"},
      {"measurement": "concentration showing platelet aggregation inhibition", "setting": "[2]; 2 μg/mL collagen, one individual", "result": "about 1 mM"},
      {"measurement": "concentration giving some inhibition of platelet aggregation", "setting": "[2]; 2.5 μg/mL collagen, PRP of one individual, not at lower concentrations", "result": 200, "unit": "µM"},
      {"measurement": "concentration at which inhibition of platelet aggregation becomes detectable", "setting": "[2]; 5 μg/mL collagen", "result": "about 1 mM"},
      {"measurement": "effect on platelets (aggregation)", "setting": "[2]; 5 μg/mL collagen, 100 μM 5-CNAC", "result": "unaffected"},
      {"measurement": "phase of the aggregation curve in which inhibition is seen", "setting": "[2]; collagen-stimulated aggregation", "result": "becomes apparent in the second phase of the aggregation curve"},
      {"measurement": "triggering of platelet aggregation by the compound alone", "setting": "[3]; 5-CNAC alone added to PRP, no stimulator", "result": "does not trigger platelet aggregation"},
      {"measurement": "effect on platelet morphology (swirling of the cells)", "setting": "[3]; PRP", "result": "does not alter platelet morphology"}
    ]}
  ]
}
